{"source": "patent US12377071B2", "about": "“Methods of treating conditions related to the S1P1 receptor” (Arena Pharmaceuticals, Inc., priority 2015, dated 2025)", "key": {"healthy adult subjects [1]": {"test_system": "healthy adult subjects", "assay": "Multiple ascending dose study: systolic BP, safety population", "type": "in vivo, human", "details": "Day 1 to Day 28; 2.0 mg for 21 days", "procedure": "(§1) A randomized, double-blind, placebo-controlled, sequential, ascending, multiple dose study to assess the safety, tolerability, and pharmacokinetics of the L-arginine salt of Compound 1 administered to healthy adult subjects was conducted. This study was designed to evaluate the safety, tolerability, pharmacokinetics, and pharmacodynamics of the L-arginine salt of Compound 1.\n(§2) Cohort 1 was dosed with 0.7 mg (by administering two 0.35 mg formulations) for 21 days. Cohort 2 was dosed with 1.35 mg (by administering both a 0.35 mg formulation and a 1 mg formulation) for 21 days. Cohort 3 was dosed with 2.0 mg for 21 days. Cohort 4 was dosed with 0.35 mg for 7 days and then with 2.0 mg for 14 days. Cohort 5 was dosed with 0.5 for 7 days and then with 3.0 mg (by administering both a 1 mg formulation and a 2 mg formulation) for 14 days.\n(§3) The following safety assessments were conducted: physical examinations with ophthalmoscopy, clinical laboratory tests (serum chemistry, coagulation, and urinalysis), vital signs, continuous telemetry (12 lead ECG), safety ECGs, pulmonary function testing (PFT), serum protein electrophoresis (SPEP) and serum immunoelectrophoresis (IEP), and adverse event reporting."}, "healthy adult subjects [2]": {"test_system": "healthy adult subjects", "assay": "Multiple ascending dose study: diastolic BP, safety population", "type": "in vivo, human", "details": "Day 1 to Day 28", "procedure": "as §1, §2, §3"}, "healthy adult subjects [3]": {"test_system": "healthy adult subjects", "assay": "Multiple ascending dose study: QTc, safety population", "type": "in vivo, human", "details": "Day 1 to Day 23", "procedure": "as §1, §2, §3"}, "healthy adult subjects [4]": {"test_system": "healthy adult subjects", "assay": "Multiple ascending dose study: safety assessments and adverse events", "procedure": "as §3"}, "[5]": {"details": "0.35 mg for 7 days then 2.0 mg for 14 days"}, "[6]": {"details": "0.5 mg for 7 days then 3.0 mg for 14 days"}}, "note": "Entries after “also recorded” stand apart in the source; their conditions may differ. Structures can show the parent of a compound that is named as a salt."}
{"smiles": "O=C(O)C[C@H]1CCc2c1[nH]c1ccc(OCc3ccc(C4CCCC4)c(C(F)(F)F)c3)cc21", "note": "[L-arginine salt of Compound 1]", "values": [{"measurement": "Minimum Value for Post-dose Systolic BP, Change from Baseline, Mean", "setting": "healthy adult subjects [1]", "value": "−9.80", "unit": "mmHg"}, {"measurement": "Minimum Value for Post-dose Systolic BP, Change from Baseline, Median", "setting": "healthy adult subjects [1]", "value": "−9.00", "unit": "mmHg"}, {"measurement": "Minimum Value for Post-dose Systolic BP, Change from Baseline, Min, Max", "setting": "healthy adult subjects [1]", "value": "−18.00 to −4.00", "unit": "mmHg"}, {"measurement": "Minimum Value for Post-dose Systolic BP, On Treatment Mean", "setting": "healthy adult subjects [1]", "value": 90.80, "unit": "mmHg"}, {"measurement": "Minimum Value for Post-dose Diastolic BP, Change from Baseline, Mean", "setting": "healthy adult subjects [2]; [5]", "value": "−7.90", "unit": "mmHg"}, {"measurement": "Minimum Value for Post-dose Diastolic BP, Change from Baseline, Median", "setting": "healthy adult subjects [2]; [5]", "value": "−6.00", "unit": "mmHg"}, {"measurement": "Minimum Value for Post-dose Diastolic BP, Change from Baseline, Min, Max", "setting": "healthy adult subjects [2]; [5]", "value": "−19.00 to −1.00", "unit": "mmHg"}, {"measurement": "Minimum Value for Post-dose Diastolic BP, On Treatment Mean", "setting": "healthy adult subjects [2]; [5]", "value": 50.80, "unit": "mmHg"}, {"measurement": "Minimum Value for Post-dose Diastolic BP, Change from Baseline, Mean", "setting": "healthy adult subjects [2]; [6]", "value": "−6.30", "unit": "mmHg"}, {"measurement": "Minimum Value for Post-dose Diastolic BP, Change from Baseline, Median", "setting": "healthy adult subjects [2]; [6]", "value": "−7.00", "unit": "mmHg"}, {"measurement": "Minimum Value for Post-dose Diastolic BP, Change from Baseline, Min, Max", "setting": "healthy adult subjects [2]; [6]", "value": "−13.00 to 3.00", "unit": "mmHg"}, {"measurement": "Minimum Value for Post-dose Diastolic BP, On Treatment Mean", "setting": "healthy adult subjects [2]; [6]", "value": 50.20, "unit": "mmHg"}, {"measurement": "Minimum Value for Post-dose Diastolic BP, Change from Baseline, Mean", "setting": "healthy adult subjects [2]; 0.7 mg for 21 days", "value": "−6.10", "unit": "mmHg"}, {"measurement": "Minimum Value for Post-dose Diastolic BP, Change from Baseline, Median", "setting": "healthy adult subjects [2]; 0.7 mg for 21 days", "value": "−6.00", "unit": "mmHg"}, {"measurement": "Minimum Value for Post-dose Diastolic BP, Change from Baseline, Min, Max", "setting": "healthy adult subjects [2]; 0.7 mg for 21 days", "value": "−16.00 to 2.00", "unit": "mmHg"}, {"measurement": "Minimum Value for Post-dose Diastolic BP, On Treatment Mean", "setting": "healthy adult subjects [2]; 0.7 mg for 21 days", "value": 56.00, "unit": "mmHg"}, {"measurement": "Minimum Value for Post-dose Diastolic BP, Change from Baseline, Mean", "setting": "healthy adult subjects [2]; 1.35 mg for 21 days", "value": "−5.20", "unit": "mmHg"}, {"measurement": "Minimum Value for Post-dose Diastolic BP, Change from Baseline, Median", "setting": "healthy adult subjects [2]; 1.35 mg for 21 days", "value": "−7.50", "unit": "mmHg"}, {"measurement": "Minimum Value for Post-dose Diastolic BP, Change from Baseline, Min, Max", "setting": "healthy adult subjects [2]; 1.35 mg for 21 days", "value": "−11.00 to 6.00", "unit": "mmHg"}, {"measurement": "Minimum Value for Post-dose Diastolic BP, On Treatment Mean", "setting": "healthy adult subjects [2]; 1.35 mg for 21 days", "value": 53.70, "unit": "mmHg"}, {"measurement": "Minimum Value for Post-dose Diastolic BP, Change from Baseline, Mean", "setting": "healthy adult subjects [2]; 2.0 mg for 21 days", "value": "−11.20", "unit": "mmHg"}, {"measurement": "Minimum Value for Post-dose Diastolic BP, Change from Baseline, Median", "setting": "healthy adult subjects [2]; 2.0 mg for 21 days", "value": "−9.00", "unit": "mmHg"}, {"measurement": "Minimum Value for Post-dose Diastolic BP, Change from Baseline, Min, Max", "setting": "healthy adult subjects [2]; 2.0 mg for 21 days", "value": "−21.00 to −4.00", "unit": "mmHg"}, {"measurement": "Minimum Value for Post-dose Diastolic BP, On Treatment Mean", "setting": "healthy adult subjects [2]; 2.0 mg for 21 days", "value": 45.30, "unit": "mmHg"}, {"measurement": "Maximum Value for Post-dose QTc, Change from Baseline, Mean", "setting": "healthy adult subjects [3]; [5]", "value": "−0.10", "unit": "MS"}, {"measurement": "Maximum Value for Post-dose QTc, Change from Baseline, Median", "setting": "healthy adult subjects [3]; [5]", "value": 0.50, "unit": "MS"}, {"measurement": "Maximum Value for Post-dose QTc, Change from Baseline, Min, Max", "setting": "healthy adult subjects [3]; [5]", "value": "−19.00 to 17.00", "unit": "MS"}, {"measurement": "Maximum Value for Post-dose QTc, On Treatment Mean", "setting": "healthy adult subjects [3]; [5]", "value": 411.10, "unit": "MS"}, {"measurement": "Maximum Value for Post-dose QTc, Change from Baseline, Mean", "setting": "healthy adult subjects [3]; [6]", "value": 5.60, "unit": "MS"}, {"measurement": "Maximum Value for Post-dose QTc, Change from Baseline, Median", "setting": "healthy adult subjects [3]; [6]", "value": 5.00, "unit": "MS"}, {"measurement": "Maximum Value for Post-dose QTc, Change from Baseline, Min, Max", "setting": "healthy adult subjects [3]; [6]", "value": "−5.00 to 15.00", "unit": "MS"}, {"measurement": "Maximum Value for Post-dose QTc, On Treatment Mean", "setting": "healthy adult subjects [3]; [6]", "value": 425.10, "unit": "MS"}, {"measurement": "Maximum Value for Post-dose QTc, Change from Baseline, Mean", "setting": "healthy adult subjects [3]; 0.7 mg for 21 days", "value": 3.60, "unit": "MS"}, {"measurement": "Maximum Value for Post-dose QTc, Change from Baseline, Median", "setting": "healthy adult subjects [3]; 0.7 mg for 21 days", "value": 3.50, "unit": "MS"}, {"measurement": "Maximum Value for Post-dose QTc, Change from Baseline, Min, Max", "setting": "healthy adult subjects [3]; 0.7 mg for 21 days", "value": "−8.00 to 16.00", "unit": "MS"}, {"measurement": "Maximum Value for Post-dose QTc, On Treatment Mean", "setting": "healthy adult subjects [3]; 0.7 mg for 21 days", "value": 418.40, "unit": "MS"}, {"measurement": "Maximum Value for Post-dose QTc, Change from Baseline, Mean", "setting": "healthy adult subjects [3]; 1.35 mg for 21 days", "value": 8.20, "unit": "MS"}, {"measurement": "Maximum Value for Post-dose QTc, Change from Baseline, Median", "setting": "healthy adult subjects [3]; 1.35 mg for 21 days", "value": 6.00, "unit": "MS"}, {"measurement": "Maximum Value for Post-dose QTc, Change from Baseline, Min, Max", "setting": "healthy adult subjects [3]; 1.35 mg for 21 days", "value": "−5.00 to 25.00", "unit": "MS"}, {"measurement": "Maximum Value for Post-dose QTc, On Treatment Mean", "setting": "healthy adult subjects [3]; 1.35 mg for 21 days", "value": 423.60, "unit": "MS"}, {"measurement": "Maximum Value for Post-dose QTc, Change from Baseline, Mean", "setting": "healthy adult subjects [3]; 2.0 mg for 21 days", "value": 4.00, "unit": "MS"}, {"measurement": "Maximum Value for Post-dose QTc, Change from Baseline, Median", "setting": "healthy adult subjects [3]; 2.0 mg for 21 days", "value": 4.50, "unit": "MS"}, {"measurement": "Maximum Value for Post-dose QTc, Change from Baseline, Min, Max", "setting": "healthy adult subjects [3]; 2.0 mg for 21 days", "value": "−8.00 to 13.00", "unit": "MS"}, {"measurement": "Maximum Value for Post-dose QTc, On Treatment Mean", "setting": "healthy adult subjects [3]; 2.0 mg for 21 days", "value": 421.20, "unit": "MS"}, {"measurement": "Subjects with mildly abnormal reproducible (NCS) pulmonary function test findings (FEV1 below 80%, FVC) post-dose", "setting": "healthy adult subjects [4]; 1.35 mg dose", "value": "One"}, {"measurement": "Subjects with mildly abnormal non-clinically significant post-treatment liver function tests (elevated ALT & AST <2× ULN)", "setting": "healthy adult subjects [4]; 2mg group", "value": 1, "unit": "subject"}, {"measurement": "Subjects with new 1st degree atrioventricular block", "setting": "healthy adult subjects [4]; 2mg group", "value": 1, "unit": "subject"}, {"measurement": "Subjects with new 1st degree atrioventricular block", "setting": "healthy adult subjects [4]; 0.5, 3 mg group", "value": 1, "unit": "subject"}, {"measurement": "Subjects with mildly abnormal non-clinically significant post-treatment liver function tests (elevated ALT & AST <2× ULN)", "setting": "healthy adult subjects [4]; 0.5 escalating to 3 mg group", "value": 1, "unit": "subject"}, {"measurement": "Discontinuation due to an adverse event", "setting": "healthy adult subjects [4]; multiple dose", "value": "No subjects were discontinued due to an adverse event"}, {"measurement": "Most common adverse events", "setting": "healthy adult subjects [4]; multiple dose", "value": "contact dermatitis and leukopenia, followed by constipation, diarrhea, nausea, and abdominal pain"}, {"measurement": "Ophthalmoscopy findings", "setting": "healthy adult subjects [4]; multiple dose", "value": "No clinically significant change from baseline"}, {"measurement": "Severity of adverse events", "setting": "healthy adult subjects [4]; multiple dose", "value": "majority of adverse events were mild"}, {"measurement": "Vital signs, ECGs, PFTs, ophthalmoscopy, clinical laboratory tests", "setting": "healthy adult subjects [4]; multiple dose", "value": "no other clinically significant safety issues"}, {"measurement": "SAEs or deaths", "setting": "healthy adult subjects [4]; multiple dose, all dose levels", "value": "No SAEs or deaths"}, {"measurement": "Second degree heart block", "setting": "healthy adult subjects [4]; multiple dose, all dose levels", "value": "No second degree heart block"}, {"measurement": "Tolerability", "setting": "healthy adult subjects [4]; multiple dose, all dose levels (0.7 to 3.0 mg, 21 days)", "value": "tolerated at all dose levels; also recorded: well tolerated at all doses tested"}]}
